{"source": "patent US20110311990A1", "about": "“TETRANOR-PGEM/PGAM SPECIFIC IMMUNOGENS, ANTIBODIES, TRACERS, ASSAY KITS AND METHODS FOR MAKING SAME” (Cayman Chemical Company, Incorporated, priority 2010, published 2011)", "key": {"[1]": {"conditions": "humans; cited from earlier work"}, "[2]": {"system": "tetranor-PGEM EIA Antiserum", "assay": "Cross-reactivity testing of tetranor-PGEM antibody (polyclonal antiserum) by competitive EIA", "type": "binding, rabbit", "conditions": "for Cross-reactivity (% XR): Specificity of the tetranor-PGEM EIA Antiserum, Example 4 kit performance characteristics; for % XR: percent cross-reactivity = IC50 of tetranor-PGEM / IC50 of test compound x 100, Example 2, antiserum raised with tetranor-PGEM-KLH immunogen", "procedure": "(§1) Rabbit immunizations were performed by Robert Sargeant Antibodies (655 Ash Street, Ramona, Calif. 92065) as follows: Male New Zealand White Rabbits 9-10 weeks of age, were immunized with Complete Freund's Adjuvant (CFA) initially, followed by Incomplete Freund's Adjuvant (IFA) for all subsequent injections. Immunogen 1 (200 μg; prepared in Step A, Procedure 1 of this Example; alternatively, Immunogen 1 A, which was prepared in Step A, Procedure 1A of this Example, has been used to produce antiserum according to this immunization method) was injected for the first immunization and 100 μg for boosts. The immunogen was diluted to one milliliter with sterile saline and combined with one milliliter of the appropriate adjuvant. The antigen and adjuvant were mixed thoroughly to form a stable emulsion which is injected subcutaneously. Blood was collected from the central ear artery and allowed to clot and retract. The serum was decanted and clarified by centrifugation before freezing.\n(§2) Antisera (AS) from multiple bleeds from multiple rabbits were screened by titration on a 96-well microplate with detection of specific Ab based on its ability to bind the tetranor-PGEM-AChE conjugate (diluted 1:1000). The next screen consisted of a sensitivity screen selecting for AS with a suitable detection limit. The next screen excluded AS with unacceptably high cross-reactivity (experiment described below) with parent metabolites, tetranor-PGFM, and tetranor-PGDM. The final screen consisted of urinary measurements to confirm normal biological levels of tetranor-PGEM, and recovery experiments.\n(§3) To determine cross-reactivity of an antibody, set up the standard curve using optimal tracer and Ab dilutions according the kit instructions. Tetranor-PGEM was diluted to 10 ng/ml for the first point in the standard curve and diluted 2.5-fold serially 7 times. First standard dilutions (10 μg/ml) of tetranor-PGDM, tetranor-PGJM, tetranor-PGAM, and tetranor-PGFM were prepared and 7 additional 6-fold serial dilutions were performed. IC50s of all compounds were determined and each percent cross-reactivity (% XR) values of the potentially cross-reactive compounds was determined by dividing the IC50 of tetranor-PGEM by the IC50 of the test compound and multiplying by 100. See the chart below for determined % XR values."}, "[3]": {"system": "tetranor-PGAM antibody", "assay": "Cross-reactivity testing of tetranor-PGAM antibody (polyclonal antiserum) by competitive EIA", "type": "binding, rabbit", "conditions": "percent cross-reactivity = IC50 of tetranor-PGAM / IC50 of test compound x 100; Example 3, antiserum raised with tetranor-PGAM-KLH immunogen", "procedure": "as §1, with “Immunogen 3” for “Immunogen 1”, “prepared according to” for “prepared in”, “Step A” for “Step A, Procedure 1”, “this Example)” for “this Example; alternatively, Immunogen 1 A, which was prepared in Step A, Procedure 1A of this Example, has been used to produce antiserum according to this immunization method)”\nas §2, with “tetranor-PGAM-AChE” for “tetranor-PGEM-AChE”, “(Tracer 4, diluted” for “(diluted”, “tetranor-PGAM,” for “tetranor-PGEM,”, “experiments. Only one AS passed all screens.” for “experiments.”\nas §3, with “Tetranor-PGAM” for “Tetranor-PGEM”, “tetranor-PGEM,” for “tetranor-PGJM, tetranor-PGAM,”, “tetranor-PGAM” for “tetranor-PGEM”"}}, "data": [{"smiles": "CCCCC[C@H](O)/C=C/[C@H]1[C@H](O)CC(=O)[C@@H]1C/C=C\\CCCC(=O)O", "note": "[PGE2]", "values": [{"measurement": "infused dose of PGE2 that appears as tetranor-PGEM in the urine", "setting": "[1]", "value": "About 15%"}]}, {"smiles": "O=C(O)CCCCC(=O)CC[C@H]1C=CC(=O)[C@@H]1CCC(=O)O", "note": "[tetranor-PGAM]", "values": [{"measurement": "Cross-reactivity (% XR)", "setting": "[2]", "value": "2,034%"}, {"measurement": "% XR", "setting": "[2]", "value": "2,034%"}, {"measurement": "% XR", "setting": "[3]", "value": 100, "unit": "%"}]}, {"smiles": "O=C(O)CCCCC(=O)CC[C@H]1C(=O)C[C@H](O)[C@@H]1CCC(=O)O", "note": "[tetranor-PGDM]", "values": [{"measurement": "Cross-reactivity (% XR)", "setting": "[2]", "value": 1.5, "unit": "%"}, {"measurement": "% XR", "setting": "[2]", "value": 1.5, "unit": "%"}, {"measurement": "% XR", "setting": "[3]", "value": 5.3, "unit": "%"}]}, {"smiles": "O=C(O)CCCCC(=O)CC[C@H]1[C@H](O)CC(=O)[C@@H]1CCC(=O)O", "note": "[tetranor-PGEM, 11α-hydroxy-9,15-dioxo-13,14-dihydro-2,3,4,5-tetranor-prostan-1,20-dioic acid]", "values": [{"measurement": "Cross-reactivity (% XR)", "setting": "[2]", "value": 100, "unit": "%"}, {"measurement": "% XR", "setting": "[2]", "value": 100, "unit": "%"}, {"measurement": "% XR", "setting": "[3]", "value": 25.1, "unit": "%"}]}, {"smiles": "O=C(O)CCCCC(=O)CC[C@@H]1[C@@H](CCC(=O)O)[C@@H](O)C[C@H]1O", "note": "[tetranor-PGFM]", "values": [{"measurement": "Cross-reactivity (% XR)", "setting": "[2]", "value": 7.8, "unit": "%"}, {"measurement": "% XR", "setting": "[2]", "value": 7.8, "unit": "%"}, {"measurement": "% XR", "setting": "[3]", "value": 1.0, "unit": "%"}]}, {"smiles": "O=C(O)CCCCC(=O)CC[C@H]1C(=O)C=C[C@@H]1CCC(=O)O", "note": "[tetranor-PGJM]", "values": [{"measurement": "Cross-reactivity (% XR)", "setting": "[2]", "value": 27.4, "unit": "%"}, {"measurement": "% XR", "setting": "[2]", "value": 27.4, "unit": "%"}]}]}
